The source of these data is patent US10538487B2, “Sulfonylureas and related compounds and use of same” (priority 2015, dated 2020).

Read-outs that look alike come from different tables or passages of the source.

The target of data set [1] is T1, NLRP3 inflammasome (Homo sapiens, UniProt Q96P20). In words: Inhibition of IL-1β release, NLRP3 inflammasome activation assay in HMDM. Format: cell-based. An outline of the steps: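 Primary human monocyte-derived macrophages from CD14+ buffy-coat monocytes, seeded at 1×10^5/ml. Compound added in serum-free medium 30 min before NLRP3 stimulation (ATP, nigericin, LeuLeu-OMe or MSU). Cytokine in supernatants measured by ELISA or AlphaLISA; cell death by LDH release relative to full lysis.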

Data set [2] deals with T1, NLRP3 inflammasome. In words: Inhibition of IL-18 release, NLRP3 inflammasome activation assay in HMDM. Particulars: class symbols. Format: cell-based. Here is the method: The following assays can be used to determine inhibitory activity of test compounds on the NLRP3 inflammasome using common stimuli such as adenosine triphosphate, nigericin, LeuLeu-OMe or monosodium urate crystals (MSU).
To generate HMDM, human monocytes are isolated from buffy coat blood using Ficoll-Plaque Plus (GE Healthcare) and density centrifugation. CD14^+ cell selection is performed using MACS magnetic beads (Miltenyl Biotec).
HMDM are seeded at 1×10^5/ml. […] Medium is removed and replaced with serum free medium (SFM) containing test compound 30 min prior to NLRP3 stimulation. […] ATP can be sourced from Sigma Aldrich, nigericin and MSU from Invivogen and LeuLeu-Ome from Chem-Impex International.
For ELISA and cell death assays cells are seeded in 96 well plates. Supernatants are removed and analysed using ELISA kits according to the manufacturer's instructions (DuoSet® R&D Systems, ReadySetGo!® eBioscience, BD OptEIA™, or Perkin Elmer AlphaLISA®). Cell death is assessed by measurement of LDH release relative to a 100% cell lysis control using the CytoTox96® non-radioactive cytotoxicity assay (Promega).

Data set [3] is described as follows: Compound levels in blood plasma of mice after oral gavage (LC-MS/MS). Particulars: mouse, 2 hour timepoint after oral gavage at 20 mg/Kg. Format: in vivo.
Method: A series of 10-fold dilutions of the 100,000 ng/mL stock solution with 10 mM NH4HCO3 gave concentrations of 10,000, 1,000, 100 and 10 ng/mL. The 100,000 ng/mL stock solution was diluted to 3:7 with 10 mM NH4HCO3 to give a concentration of 30,000 ng/mL and a series of 10-fold dilutions gave concentrations of 3,000, 300, 30 and 3 ng/mL.
20 μL of test compound-containing solution and 160 μL precipitation solution were added to 20 μL of mouse plasma in a low binding Eppendorf tube. The samples were vortexed, allowed to stand at 4° C. for 10 mins and centrifuged at 14,000×g for 8 min. 150 μL of the supernatant was transferred to an HPLC vial insert. The samples were stored at 4° C. until analysis.
Dosing: Oral gavage at 20 mg/kg
(§1) Prepare stock compounds for dosing at 4 mg/ml in sterile PBS. Mice were weighed and dosed by oral gavage at 20 mg/kg for each compound. […]
The samples were analysed on an AB Sciex 4000QTrap MS with 2 Shimadzu Nexera LC-30AD Solvent Delivery Units, Shimadzu Nexera SIL-30AC Auto-Sampler, Shimadzu Prominence DGU-20A5 Degasser, Shimadzu Prominence CBM-20A System Controller and Shimadzu Prominence CTO-20A Column Oven. […] The peak areas from the SRM data for carbutamide and test compound were analysed using the AB Sciex's Analyst software using the Quantitation Wizard.
Data set [4] is described as follows: in vivo. Particulars: mouse, brain, mice, oral gavage at 20 mg/kg.
Method: The sample solutions prepared for the plasma standard curve were used for the brain homogenate standard curve.
The mouse brain homogenate from the saline control was thawed and vortexed for 3 min or until homogenous, sonicated for 1 min. When the foam settled, 50 μL of mouse brain homogenate was transferred into an Eppendorf tube, followed by 50 μL of test compound in 10 mM NH4HCO3, 150 μL of H2O and 500 μL of ice cold precipitation solution with vortexing after every addition. The standards were allowed to stand at 4° C. for 10 mins and then centrifuged at 14,000×g for 8 min. 200 μL of the supernatant was transferred to HPLC vial insert ensuring that no air bubbles were present and the samples stored at 4° C. until analysis.
Dosing: Oral gavage at 20 mg/kg
as §1
The samples were analysed on an AB Sciex 4000QTrap MS with 2 Shimadzu Nexera LC-30AD Solvent Delivery Units, Shimadzu Nexera SIL-30AC Auto-Sampler, Shimadzu Prominence DGU-20A5 Degasser, Shimadzu Prominence CBM-20A System Controller and Shimadzu Prominence CTO-20A Column Oven. […] The peak areas from the SRM data for carbutamide and test compound were analysed using the AB Sciex's Analyst software using the Quantitation Wizard. […]
Data set [5] is described as follows: Half life of CRID3 in mouse (stated in description). Format: in vivo.
In data set [6] the target is NLRP3 inflammasome (Mus musculus, UniProt Q8R4B8). In words: Inhibition of IL-1β release, NLRP3 inflammasome activation assay in BMDM. Type of data set: cell-based. The essentials: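 C57BL/6 mouse BMDM seeded at 1×10^5/ml were primed with E. coli K12 LPS for 3 h, then given compound in serum-free medium 30 min before NLRP3 stimulation (ATP, nigericin, LeuLeu-OMe or MSU). Released IL-1β in supernatants was measured by ELISA, and cell death by LDH release relative to full lysis.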

Where [7] appears, read: inhibition of IL-1β release, class symbols, read-out: Avg. IL-1β IC50 HMDM.
Setting [8] is: inhibition of IL-1β release, class symbols, read-out: Avg. IL-1β IC50 Murine BMDM.

T1 sequence (Q96P20 whole entry): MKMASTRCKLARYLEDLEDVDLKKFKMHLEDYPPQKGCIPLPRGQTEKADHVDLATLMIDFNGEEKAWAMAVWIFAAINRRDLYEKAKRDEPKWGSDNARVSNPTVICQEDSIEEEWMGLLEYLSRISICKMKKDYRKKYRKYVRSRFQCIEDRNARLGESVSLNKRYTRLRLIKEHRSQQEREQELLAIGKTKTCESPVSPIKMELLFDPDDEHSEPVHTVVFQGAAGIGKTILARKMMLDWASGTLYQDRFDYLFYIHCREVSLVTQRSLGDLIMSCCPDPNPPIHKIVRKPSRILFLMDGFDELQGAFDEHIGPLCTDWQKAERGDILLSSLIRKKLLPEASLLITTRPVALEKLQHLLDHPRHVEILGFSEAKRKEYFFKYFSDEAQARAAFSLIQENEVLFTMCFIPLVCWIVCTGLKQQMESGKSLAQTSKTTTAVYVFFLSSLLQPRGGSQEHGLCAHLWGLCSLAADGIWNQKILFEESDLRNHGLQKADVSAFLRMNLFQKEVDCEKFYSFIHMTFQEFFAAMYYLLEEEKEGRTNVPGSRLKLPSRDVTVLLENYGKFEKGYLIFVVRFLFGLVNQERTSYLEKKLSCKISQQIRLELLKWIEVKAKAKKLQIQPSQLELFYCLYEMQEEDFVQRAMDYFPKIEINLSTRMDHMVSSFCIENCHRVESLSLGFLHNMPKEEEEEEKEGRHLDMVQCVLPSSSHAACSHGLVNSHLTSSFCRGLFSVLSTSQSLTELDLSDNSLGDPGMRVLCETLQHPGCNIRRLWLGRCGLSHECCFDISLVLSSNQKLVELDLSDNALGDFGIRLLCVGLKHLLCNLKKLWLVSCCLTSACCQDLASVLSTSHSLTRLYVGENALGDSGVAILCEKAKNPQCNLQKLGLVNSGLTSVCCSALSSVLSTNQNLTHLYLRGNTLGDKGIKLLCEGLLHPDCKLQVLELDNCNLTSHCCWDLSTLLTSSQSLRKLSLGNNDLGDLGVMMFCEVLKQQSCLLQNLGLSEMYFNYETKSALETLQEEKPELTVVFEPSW
NLRP3 inflammasome (Mus musculus, UniProt Q8R4B8), sequence (Q8R4B8 whole entry): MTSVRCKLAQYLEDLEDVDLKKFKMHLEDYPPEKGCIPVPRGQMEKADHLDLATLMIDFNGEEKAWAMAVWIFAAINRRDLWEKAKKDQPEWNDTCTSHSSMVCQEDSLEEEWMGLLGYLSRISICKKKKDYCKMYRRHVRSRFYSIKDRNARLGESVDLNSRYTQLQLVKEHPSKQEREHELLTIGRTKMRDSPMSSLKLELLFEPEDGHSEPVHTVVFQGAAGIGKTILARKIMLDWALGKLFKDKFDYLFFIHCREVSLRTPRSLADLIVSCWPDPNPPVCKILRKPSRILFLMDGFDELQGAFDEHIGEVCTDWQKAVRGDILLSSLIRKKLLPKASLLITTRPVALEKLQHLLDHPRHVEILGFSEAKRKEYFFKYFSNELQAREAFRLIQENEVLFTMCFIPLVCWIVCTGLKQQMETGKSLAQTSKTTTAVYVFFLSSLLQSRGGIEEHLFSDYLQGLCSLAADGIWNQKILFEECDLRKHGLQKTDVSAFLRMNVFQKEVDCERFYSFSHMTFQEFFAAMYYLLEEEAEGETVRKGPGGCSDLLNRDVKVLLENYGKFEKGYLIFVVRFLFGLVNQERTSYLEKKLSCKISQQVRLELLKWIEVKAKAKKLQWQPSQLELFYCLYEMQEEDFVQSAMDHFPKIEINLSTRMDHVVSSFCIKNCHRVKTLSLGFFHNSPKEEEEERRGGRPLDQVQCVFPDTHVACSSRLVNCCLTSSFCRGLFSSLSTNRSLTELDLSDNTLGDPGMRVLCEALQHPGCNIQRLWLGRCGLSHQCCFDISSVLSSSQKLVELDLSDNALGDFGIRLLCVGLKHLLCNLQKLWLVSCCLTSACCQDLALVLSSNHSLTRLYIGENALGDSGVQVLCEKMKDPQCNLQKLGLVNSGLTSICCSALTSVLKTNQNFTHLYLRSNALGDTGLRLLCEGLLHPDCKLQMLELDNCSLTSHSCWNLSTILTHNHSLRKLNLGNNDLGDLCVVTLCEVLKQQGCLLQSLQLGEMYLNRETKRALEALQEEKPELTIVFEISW

Usually IC50 stands for the concentration needed to halve the response being measured. Consider `O=C(Nc1c2c(cc3c1CCC3)CCC2)NS(=O)(=O)c1ncn(Cc2ccccc2)n1` [1-benzyl-N-((1,2,3,5,6,7-hexahydro-s-indacen-4-yl)carbamoyl)-1H-1,2,4-triazole-3-sulfonamide], for which the 50% inhibitory concentration (IC50) in data set [1] (setting [7]) and in data set [2] was less than 100 nM in each case.
`CC(C)(O)c1cc(S(=O)(=O)NC(=O)Nc2c3c(cc4c2CCC4)CCC3)nn1Cc1ccccc1` [1-benzyl-N-((1,2,3,5,6,7-hexahydro-s-indacen-4-yl)carbamoyl)-5-(2-hydroxypropan-2-yl)-1H-pyrazole-3-sulfonamide]: the IC50 in data set [1] (setting [7]) and in data set [2] was less than 100 nM in each case.
For `O=C(Nc1c2c(cc3c1CCC3)CCC2)NS(=O)(=O)c1cccs1` [N-((1,2,3,5,6,7-hexahydro-s-indacen-4-yl)carbamoyl)thiophene-2-sulfonamide], the half-maximal inhibitory concentration (IC50) in data set [1] (setting [7]) and in data set [2] was less than 100 nM each time.
For the compound `Cc1ccc(S(=O)(=O)NC(=O)Nc2c3c(cc4c2CCC4)CCC3)s1` [N-((1,2,3,5,6,7-hexahydro-s-indacen-4-yl)carbamoyl)-5-methylthiophene-2-sulfonamide], the IC50 in data set [1] (setting [7]) and in data set [2] was less than 100 nM each time.
With `CC(C)(O)c1coc(S(=O)(=O)NC(=O)Nc2c3c(cc4c2CCC4)CCC3)c1` [drawing 335], the figures for the concentration at 2 h in data set [3] and in data set [4] were 17500 ng/mL and 184 ng/g, respectively. Moreover, in data set [4] (read-out: Brain/Plasma Ratio), the Kp at 2 h came to 0.0117.
The compound `CC(C)(O)c1coc(S(=O)(=O)NC(=O)Nc2c3c(cc4c2CCC4)CCC3)c1` [CRID3] yielded a half life in data set [5] of 3.2 h.
In data set [3], `CC(C)n1ccc(S(=O)(=O)NC(=O)Nc2c3c(cc4c2CCC4)CCC3)n1` [drawing 336] registered a concentration at 2 h of 28200 ng/mL.
For the compound `Cc1ccc(S(=O)(=O)NC(=O)Nc2c3c(cc4c2CCC4)CCC3)o1` [N-((1,2,3,5,6,7-hexahydro-s-indacen-4-yl)carbamoyl)-5-methylfuran-2-sulfonamide], the IC50 in data set [1] (setting [7]) and in data set [2] was less than 100 nM in each case.
As to `Cn1nc(S(=O)(=O)NC(=O)Nc2c3c(cc4c2CCC4)CCC3)cc1C(C)(C)O` [N-((1,2,3,5,6,7-hexahydro-s-indacen-4-yl)carbamoyl)-5-(2-hydroxypropan-2-yl)-1-methyl-1H-pyrazole-3-sulfonamide], the IC50 in data set [6] (setting [8]), in data set [1] (setting [7]) and in data set [2] was less than 100 nM throughout.
For the compound `CC(C)(O)c1cc(S(=O)(=O)NC(=O)Nc2c3c(cc4c2CCC4)CCC3)nn1-c1ccccc1` [N-((1,2,3,5,6,7-hexahydro-s-indacen-4-yl)carbamoyl)-5-(2-hydroxypropan-2-yl)-1-phenyl-1H-pyrazole-3-sulfonamide], the 50% inhibitory concentration (IC50) in data set [6] (setting [8]), in data set [1] (setting [7]) and in data set [2] was less than 100 nM each time.
Regarding `CC(C)(C)n1ccc(S(=O)(=O)NC(=O)Nc2c3c(cc4c2CCC4)CCC3)n1` [1-(tert-butyl)-N-((1,2,3,5,6,7-hexahydro-s-indacen-4-yl)carbamoyl)-1H-pyrazole-3-sulfonamide], the IC50 in data set [1] (setting [7]) and in data set [2] was less than 100 nM throughout.
As for `CC(C)c1cccc(C(C)C)c1NC(=O)NS(=O)(=O)c1cc(C(C)(C)O)n(C)n1` [N-((2,6-diisopropylphenyl)carbamoyl)-5-(2-hydroxypropan-2-yl)-1-methyl-1H-pyrazole-3-sulfonamide], the IC50 in data set [1] (setting [7]) and in data set [2] was less than 100 nM throughout.
Consider `C=C(C)c1coc(S(=O)(=O)NC(=O)Nc2c3c(cc4c2CCC4)CCC3)c1` [N-((1,2,3,5,6,7-hexahydro-s-indacen-4-yl)carbamoyl)-4-(prop-1-en-2-yl)furan-2-sulfonamide], for which the half-maximal inhibitory concentration (IC50) in data set [6] (setting [8]) and in data set [1] (setting [7]) was less than 1000 nM in each case.
In the case of `Cc1cc(C(=O)NCCc2ccc(S(=O)(=O)NC(=O)Nc3c4c(cc5c3CCC5)CCC4)cc2)no1` [drawing 362], the 50% inhibitory concentration (IC50) in data set [6] (select compounds of the first aspect (Table 10), read-out: BMDM IC50 vs NLRP3) came to 280 nM; in data set [1] (select compounds of the first aspect (Table 10), read-out: HMDM IC50 vs NLRP3), 190 nM.
As for `O=C(Nc1c2c(cc3c1CCC3)CCC2)NS(=O)(=O)c1ccc2c(c1)CCC2` [N-((1,2,3,5,6,7-hexahydro-s-indacen-4-yl)carbamoyl)-2,3-dihydro-1H-indene-5-sulfonamide], the IC50 in data set [6] (setting [8]) was less than 100 nM; in data set [1] (setting [7]), less than 10000 nM.
